# In patent US11267853B2, “Carbohydrate tethering at cell surfaces to induce immune response” (University of Rhode Island Board of Trustees, priority 2019, dated 2022):
# Primed or numbered codes have the meaning given here. Where no end group is shown, it is not given here. Side-chain parts run from the residue outwards. maleimide = maleimide group (rhamnose-PEG12-maleimide) coupled to the N-terminal Cys of the peptide; PEG12′ = polyethylene glycol spacer of 12 units; Rha = rhamnose
# Columns and labels:
# [1] = system: HeLa cells (tumor spheroids); experiment: Lectin-Cy3 binding to tumor spheroids pre-treated with rhamnose-pHLIP constructs (fluorescence confocal imaging); assay type: cell-based; conditions: HeLa spheroids pre-treated with 0-2 μM construct at pH 6.3, 37° C., 30 min, washed; then Lectin-Cy3 at pH 7.4; compared with lectin-Cy3 alone
# Protocol: Induction of an immunological response requires a proper positioning of carbohydrate epitope at the surface of tumor cells. This was verified on 3-D tumor cancer cell culture (tumor spheroids). Briefly, a 2% agarose solution was made by dissolving in pH 7.4 PBS. 150 μL of the solution is pipetted into each well of a 48-well flat bottom tissue culture plate. After the agarose gel sufficiently settled (˜1 h), 150 μL of DMEM supplemented with 10% FBS and ciprofloxacin.HCl was added to each well. The covered plate was left in a humidified atmosphere at 37° C. and 5% CO2 in cell culture incubator for 24 h. On the next day, the excess medium was removed from the agarose layer. HeLa cells (10,000 cells) in 200 μL of DMEM containing 2% matrigel were added into each well and incubated for 3-4 days to allow the formation of spheroids. Matrigel was dissolved on ice overnight and added in ice cold DMEM at a concentration of 2.5% (to obtain a final concentration of 2% once added to the wells). Then the mixture was heated to 37° C. before being combined with the cells. Tumor spheroids were incubated in 50 μL of PBS buffer, pH 6.3 containing 0-2 μM Rha-pHLIP® or Rha-PEG12-pHLIP® in a humidified atmosphere of 5% CO2 at 37° C. for 30 min. After treatment, the spheroids were washed several times in 1 mL of PBS. […]
# [2] = system: B16-F10 melanoma murine cancer cells (flank tumor); experiment: B16-F10 melanoma tumor weight in tri-Gal-immunized A3galt2-knockout mice after IP treatment; assay type: in vivo; conditions: B16-F10 flank tumors, IP injections 450 μl of 80 μM for 10 consecutive days (total 60 mg/kg), versus non-treated control group
# Source text: Mice deficient in α1-3 gylactosyltransferase 2 (A3galt2) on 129/SvEv-[…] background heterozygous breeding pairs was obtained from Taconic Biosciences. The knockout mouse model is described in the article entitled “Normal development and function of invariant natural killer T cells in mice with isoglobotrihexosylceramide (iGb3) deficiency” by Porubsky et al. PNAS 2007 Apr. 3; 104(14): 5977-5982, incorporated herein by reference in its entirety.
# All animal studies with the Gal-pHLIP® construct were conducted according to the animal protocol AN1920-003 approved by the Institutional Animal Care and Use Committee at the University of Rhode Island, in compliance with the principles and procedures outlined by the National Institutes of Health for the care and use of animals. Homo- and heterozygous A3galt2-knockout female and male mice on 129/SvEv-C57BL/6J background were used in the study.
# First, immunization of mice was performed to develop antibodies against tri-Gal epitope. Briefly, at day 1 mice were immunized with Galα1-3Galβ1-4Glc-HSA (HSA: human serum albumin) from Dextra Laboratories, 20 μg/mouse emulsified in complete Freund's adjuvant. Booster injections of Galα1-3Galβ1-4Glc-HSA emulsified in incomplete Freund's adjuvant were administered at days 13, 20 and 27. […]
Substance,binding of lectin-Cy3 (fluorescence) to tumor spheroids [1],tumor weight reduction [2]
AS(Rha)DDQNPWRAYLDLLFPTDTLLLDLLWA [Rha-pHLIP®],much stronger binding of lectin-Cy3,–
Rha-PEG12-pHLIP®: Rhamnose-PEG12-malemide coupled with single Cys at N-terminal end of pHLIP® ACDDQNPWRAYLDLLFPTDTLLLDLLWA (SEQ ID NO: 469) (AC([maleimide-PEG12′-Rha])DDQNPWRAYLDLLFPTDTLLLDLLWA),much stronger binding of lectin-Cy3,–
"tri-Gal-PEG4-pHLIP®: tri-Gal-PEG4 (Galα(1,3)Galβ(1,4)Glc-PEG4) coupled with pHLIP® ACDDQNPWRAYLDLLFPTDTLLLDLLWA (SEQ ID NO: 469) (not fully specified (residue 2); also: tri-Gal-PEG4 (Galα(1,3)Galβ(1,4)Glc-PEG4) coupled, site not given here)",–,About 65%
